Data reported in patent US9365582B2, “Macrocyclic inhibitors of hepatitis C virus” (Janssen Sciences Ireland UC, priority 2006, dated 2016).

Key:
[1] = system: HCV replicons (Huh-7 luc/neo cells, NS3-NS5B regions of HCV type 1b); test: Replicon assay (Huh-Luc cells, luciferase readout); type: cell-based; conditions: Hepatitis C virus, Huh-7, 72 h, read-out: EC50 (μM) Replicon assay
Description: This model, while not a complete infection model for HCV, currently is widely accepted as an efficacious model of autonomous HCV RNA replication. […] It will be appreciated that it is important to distinguish between compounds that specifically interfere with HCV functions from those that exert cytotoxic or cytostatic effects in the HCV replicon model, and as a consequence cause a decrease in HCV RNA or linked reporter enzyme concentration. Assays are known in the field for the evaluation of cellular cytotoxicity based for example on the activity of mitochondrial enzymes using fluorogenic redox dyes such as resazurin. Furthermore, cellular counter screens exist for the evaluation of non-selective inhibition of linked reporter gene activity, such as firefly luciferase.
The compounds of formula (I) were examined for activity in the inhibition of HCV RNA replication in a cellular assay. […] In essence, the method was as follows.
The assay utilized the stably transfected cell line Huh-7 luc/neo (hereafter referred to as Huh-Luc). This cell line harbors an RNA encoding a bicistronic expression construct comprising the wild type NS3-NS5B regions of HCV type 1b translated from an internal ribosome entry site (IRES) from encephalomyocarditis virus (EMCV), preceded by a reporter portion (FfL-luciferase), and a selectable marker portion (neo^R, neomycine phosphotransferase). The construct is bordered by 5′ and 3′ NTRs (non-translated regions) from HCV type Ib. Continued culture of the replicon cells in the presence of G418 (neo^R) is dependent on the replication of the HCV RNA. The stably transfected replicon cells that express HCV RNA, which replicates autonomously and to high levels, encoding inter alia luciferase, were used for screening the antiviral compounds.
The replicon cells were plated in 384 well plates in the presence of the test and control compounds which were added in various concentrations. Following an incubation of three days, HCV replication was measured by assaying luciferase activity (using standard luciferase assay substrates and reagents and a Perkin Elmer ViewLux™ ultraHTS microplate imager). […] The inhibitory activity of the compound on luciferase activity was monitored on the Huh-Luc cells, enabling a dose-response curve for each test compound.

HCV NS3/4A protease = HCV NS3/4A protease (Hepatitis C virus genotype 1a (isolate H77) (HCV), UniProt P27958); test: Inhibition assay (enzymatic assay) of full-length NS3 protease with NS4A cofactor; type: biochemical; conditions: full-length NS3 1 nM, 25 μM NS4A cofactor, 0.5 μM depsipeptide substrate, 30° C., competitive inhibition model
HCV NS3/4A protease, sequence (P27958 1027-1657): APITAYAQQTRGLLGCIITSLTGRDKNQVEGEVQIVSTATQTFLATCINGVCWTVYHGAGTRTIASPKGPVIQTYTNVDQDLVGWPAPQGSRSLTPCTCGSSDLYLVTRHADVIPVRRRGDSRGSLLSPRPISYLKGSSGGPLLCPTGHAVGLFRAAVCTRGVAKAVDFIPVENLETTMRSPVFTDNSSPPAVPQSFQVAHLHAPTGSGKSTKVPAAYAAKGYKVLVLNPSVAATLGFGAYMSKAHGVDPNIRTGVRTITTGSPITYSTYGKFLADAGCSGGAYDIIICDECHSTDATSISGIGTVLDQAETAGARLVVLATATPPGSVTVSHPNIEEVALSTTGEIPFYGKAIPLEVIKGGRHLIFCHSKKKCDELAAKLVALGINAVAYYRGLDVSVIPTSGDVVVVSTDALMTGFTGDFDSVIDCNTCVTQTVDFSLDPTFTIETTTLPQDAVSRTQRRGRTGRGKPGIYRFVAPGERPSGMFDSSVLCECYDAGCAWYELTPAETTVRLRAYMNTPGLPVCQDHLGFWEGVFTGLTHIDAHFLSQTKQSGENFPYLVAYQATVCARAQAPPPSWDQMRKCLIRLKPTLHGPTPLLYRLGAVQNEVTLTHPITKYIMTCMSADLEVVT
Description: The aim of this in vitro assay was to measure the inhibition of HCV NS3/4A protease complexes by the compounds of the present invention.
Inhibitors were dissolved in DMSO, sonicated for 30 sec and vortexed. The solutions were stored at −20° C. between measurements.
The final concentration of DMSO in the assay sample was adjusted to 3.3%. […] A minimum of two replicates was performed for all measurements.

Compound | EC50 [1] | Ki (HCV NS3/4A protease)
CCOc1cc(O[C@@H]2C[C@H]3C(=O)N[C@]4(C(=O)NS(=O)(=O)C5CC5)C[C@H]4/C=C\CCCCN(C)C(=O)[C@@H]3C2)c2cccc(C)c2n1 [Compound 13, N-[17-[2-ethoxy-8-methylquinolin-4-yloxy]-13-methyl-2,14-dioxo-3,13-diazatricyclo[13.3.0.0^4,6]octadec-7-ene-4-carbonyl](cyclopropyl)-sulfonamide] | 0.014 µM | 0.0001 µM
CCOc1cc(O[C@@H]2C[C@H]3C(=O)N[C@]4(C(=O)O)C[C@H]4/C=C\CCCCN(C)C(=O)[C@@H]3C2)c2ccc3c(c2n1)OCO3 [Compound 14, 17-[8-ethoxy[1,3]dioxolo[4,5-h]quinolin-6-yloxy]-13-methyl-2,14-dioxo-3,13-diazatricyclo[13.3.0.0^4,6]octadec-7-ene-4-carboxylic acid] | 3.3 µM | 0.058 µM
CCOc1cc(O[C@@H]2C[C@H]3C(=O)N[C@]4(C(=O)NS(=O)(=O)C5CC5)C[C@H]4/C=C\CCCCN(C)C(=O)[C@@H]3C2)c2ccc(OC)cc2n1 [Compound 5, N-[17-[2-ethoxy-7-methoxyquinolin-4-yloxy]-13-methyl-2,14-dioxo-3,13-diazatricyclo[13.3.0.0^4,6]octadec-7-ene-4-carbonyl](cyclopropyl)-sulfonamide] | 0.014 µM | 0.0001 µM
CCOc1cc(O[C@@H]2C[C@H]3C(=O)N[C@]4(C(=O)O)C[C@H]4/C=C\CCCCN(C)C(=O)[C@@H]3C2)c2ccc(OC)cc2n1 [Compound 4, 17-[2-ethoxy-7-methoxyquinolin-4-yloxy]-13-methyl-2,14-dioxo-3,13-diazatricyclo[13.3.0.0^4,6]octadec-7-ene-4-carboxylic acid] | 4.26 µM | 0.046 µM
CCOc1cc(O[C@@H]2C[C@H]3C(=O)N[C@]4(C(=O)O)C[C@H]4/C=C\CCCCN(C)C(=O)[C@@H]3C2)c2cccc(Cl)c2n1 [Compound 10, 17-[8-chloro-2-ethoxyquinolin-4-yloxy]-13-methyl-2,14-dioxo-3,13-diazatricyclo[13.3.0.0^4,6]octadec-7-ene-4-carboxylic acid] | 3.81 µM | 0.0077 µM
CCOc1cc(O[C@@H]2C[C@H]3C(=O)N[C@]4(C(=O)NS(=O)(=O)C5CC5)C[C@H]4/C=C\CCCCN(C)C(=O)[C@@H]3C2)c2ccc3c(c2n1)OCO3 [Compound 15, N-[17-[8-ethoxy[1,3]dioxolo[4,5-h]quinolin-6-yloxy]-13-methyl-2,14-dioxo-3,13-diazatricyclo[13.3.0.0^4,6]octadec-7-ene-4-carbonyl]-(cyclo-propyl)sulfonamide] | 0.0035 µM | 0.0002 µM
CCOc1cc(O[C@@H]2C[C@H]3C(=O)N[C@]4(C(=O)NS(=O)(=O)C5CC5)C[C@H]4/C=C\CCCCN(C)C(=O)[C@@H]3C2)c2cccc(Cl)c2n1 [Compound 11, N-[17-[8-chloro-2-ethoxyquinolin-4-yloxy]-13-methyl-2,14-dioxo-3,13-diazatricyclo[13.3.0.0^4,6]octadec-7-ene-4-carbonyl](cyclopropyl)-sulfonamide] | 0.0063 µM | 0.0005 µM
CCOc1cc(O[C@@H]2C[C@H]3C(=O)N[C@]4(C(=O)NS(=O)(=O)C5CC5)C[C@H]4/C=C\CCCCN(C)C(=O)[C@@H]3C2)c2ccc(OC)c(Br)c2n1 [Compound 7, N-[17-[8-bromo-2-ethoxy-7-methoxyquinolin-4-yloxy]-13-methyl-2,14-dioxo-3,13-diazatricyclo[13.3.0.0^4,6]octadec-7-ene-4-carbonyl](cyclo-propyl)sulfonamide] | 0.0035 µM | 0.0001 µM
CCOc1cc(O[C@@H]2C[C@H]3C(=O)N[C@]4(C(=O)NS(=O)(=O)C5CC5)C[C@H]4/C=C\CCCCN(C)C(=O)[C@@H]3C2)c2ccc3c(c2n1)CCO3 [Compound 9, N-[17-[2-ethoxy-8,9-dihydrofuro[2,3-h]quinolin-4-yloxy]-13-methyl-2,14-dioxo-3,13-diazatricyclo[13.3.0.0^4,6]octadec-7-ene-4-carbonyl](cyclo-propyl)sulfonamide] | 0.029 µM | 0.0008 µM
CCOc1cc(O[C@@H]2C[C@H]3C(=O)N[C@]4(C(=O)O)C[C@H]4/C=C\CCCCN(C)C(=O)[C@@H]3C2)c2cccc(C)c2n1 [Compound 12, 17-[2-ethoxy-8-methylquinolin-4-yloxy]-13-methyl-2,14-dioxo-3,13-diazatricyclo[13.3.0.0^4,6]octadec-7-ene-4-carboxylic acid] | 7.5 µM | 0.017 µM
